Test results: the NIST ThermoML archive (doi:10.1016/j.jct.2010.10.016)

Experiment: xn = mol fraction of the nth substance listed
Conditions: 101 kPa, Liquid; for viscosity: Capillary tube (Ostwald / Ubbelohde) method; for mass density: Pycnometric method; for speed of sound: Resonance method

C[N+](=O)[O-] [nitromethane] + COCCO
Conditions | mass density [kg/m3] | speed of sound [m/s] | viscosity [mPa·s]
293.15 K, x1 = 0.05 | 970.66 | 1354.7 | –
293.15 K, x1 = 0.0501 | – | – | 1.618
293.15 K, x1 = 0.0998 | 976.62 | 1351.1 | –
293.15 K, x1 = 0.1024 | – | – | 1.527
293.15 K, x1 = 0.2 | 989.24 | 1345 | –
293.15 K, x1 = 0.2162 | – | – | 1.341
293.15 K, x1 = 0.2991 | – | 1340 | –
293.15 K, x1 = 0.3 | 1002.64 | – | –
293.15 K, x1 = 0.3003 | – | – | 1.216
293.15 K, x1 = 0.4 | 1017.06 | 1335.5 | –
293.15 K, x1 = 0.4076 | – | – | 1.072
293.15 K, x1 = 0.451 | – | – | 1.02
293.15 K, x1 = 0.4997 | – | – | 0.964
293.15 K, x1 = 0.4998 | – | 1331.9 | –
293.15 K, x1 = 0.5 | 1032.73 | – | –
293.15 K, x1 = 0.55 | – | – | 0.91
293.15 K, x1 = 0.6 | 1049.94 | 1329.2 | –
293.15 K, x1 = 0.6026 | – | – | 0.859
293.15 K, x1 = 0.6998 | – | – | 0.775
293.15 K, x1 = 0.7 | 1068.86 | 1327.7 | –
293.15 K, x1 = 0.7991 | – | – | 0.71
293.15 K, x1 = 0.8 | – | 1327.5 | –
293.15 K, x1 = 0.8002 | 1089.69 | – | –
293.15 K, x1 = 0.8999 | 1112.46 | 1330.3 | –
293.15 K, x1 = 0.9001 | – | – | 0.663
293.15 K, x1 = 0.941 | – | – | 0.653
293.15 K, x1 = 0.9503 | 1124.81 | 1333.7 | –
293.15 K, x1 = 1 | 1137.63 | 1340.2 | 0.648
298.15 K, x1 = 0.0506 | – | – | 1.466
298.15 K, x1 = 0.1037 | – | – | 1.387
298.15 K, x1 = 0.2002 | – | – | 1.249
298.15 K, x1 = 0.3006 | – | – | 1.118
298.15 K, x1 = 0.4052 | – | – | 0.994
298.15 K, x1 = 0.4509 | – | – | 0.944
298.15 K, x1 = 0.5016 | – | – | 0.892
298.15 K, x1 = 0.5497 | – | – | 0.846
298.15 K, x1 = 0.5991 | – | – | 0.8
